From ChEMBL document CHEMBL1201862, “PubChem BioAssay data set” (2004)
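Dose response: 5 concentrations. Exposure: 48 h. Format: 96-well plates. Endpoint: linear interpolation; highest concentration if not reached. GI50 is the concentration that inhibits growth by half.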 Activity calls are given as the source filed them. Cut-off read from the data, not from the text of the source: active = GI50 up to about 1.1 µM and inactive = higher.

Columns and labels:
Assay in all cases: NCI tumour cell line growth inhibition, 48 h
SW-620 = system: SW-620
K562 = system: K562
MOLT-4 = system: MOLT-4
SK-MEL-2 = system: SK-MEL-2
KM-20L2 = system: KM-20L2
IGROV-1 = system: IGROV-1
HOP-92 = system: HOP-92
SF-268 = system: SF-268
SK-MEL-5 = system: SK-MEL-5
A549 = system: A549
OVCAR-8 = system: OVCAR-8
CCRF-CEM = system: CCRF-CEM
SN12C = system: SN12C
HCT-15 = system: HCT-15
TK-10 = system: TK-10
NCI/ADR-RES = system: NCI/ADR-RES
BT-549 = system: BT-549
NCI-H522 = system: NCI-H522
T47D = system: T47D
MDA-MB-435 = system: MDA-MB-435

| SMILES | GI50 (SW-620) | GI50 (K562) | GI50 (MOLT-4) | GI50 (SK-MEL-2) | GI50 (KM-20L2) | GI50 (IGROV-1) | GI50 (HOP-92) | GI50 (SF-268) | GI50 (SK-MEL-5) | GI50 (A549) | GI50 (OVCAR-8) | GI50 (CCRF-CEM) | GI50 (SN12C) | GI50 (HCT-15) [µM] | GI50 (TK-10) | GI50 (NCI/ADR-RES) | GI50 (BT-549) | GI50 (NCI-H522) | GI50 (T47D) | GI50 (MDA-MB-435) |
| --- | --- | --- | --- | --- | --- | --- | --- | --- | --- | --- | --- | --- | --- | --- | --- | --- | --- | --- | --- | --- |
| COC(=O)CSc1nnc(-c2ccc(O)c([N+](=O)[O-])c2)[nH]1 | > 100 µM (inactive) | > 100 µM (inactive) | > 100 µM (inactive) | > 100 µM (inactive) | > 100 µM (inactive) | > 100 µM (inactive) | > 100 µM (inactive) | > 100 µM (inactive) | > 100 µM (inactive) | > 100 µM (inactive) | > 100 µM (inactive) | > 100 µM (inactive) | > 100 µM (inactive) | > 100 | > 100 µM (inactive) |  |  |  |  |  |
| COP(=O)(OC)C1=c2c(C)noc2=C2C=COC2C1=O (stereo unspecified) | > 100 µM (inactive) | > 100 µM (inactive) | > 100 µM (inactive) | > 100 µM (inactive) |  | > 100 µM (inactive) | 63.4 µM (inactive) | > 100 µM (inactive) | > 100 µM (inactive) | > 100 µM (inactive) | > 100 µM (inactive) | > 100 µM (inactive) | > 100 µM (inactive) | > 100 | > 100 µM (inactive) | > 100 µM (inactive) | > 100 µM (inactive) | > 100 µM (inactive) | > 10 µM (inactive) | > 100 µM (inactive) |
| NC1CCC(c2cc3ccccc3s2)(N2CCCCC2)CC1 (stereo unspecified) | 1.61 µM (inactive) | 1.63 µM (inactive) | 1.32 µM (inactive) | 1.55 µM (inactive) |  | 1.66 µM (inactive) | 0.489 µM (active) | 3.57 µM (inactive) | 2.08 µM (inactive) | 1.77 µM (inactive) | 1.72 µM (inactive) | 1.01 µM (active) | 1.67 µM (inactive) | 1.77 | 5.78 µM (inactive) | 1.19 µM (inactive) | 1.21 µM (inactive) | 1.76 µM (inactive) | 2.09 µM (inactive) | 1.35 µM (inactive) |
| O=C1CC2CCN(C(=O)c3ccccc3)CC2CCN1 (stereo unspecified) | > 100 µM (inactive) | > 100 µM (inactive) | > 100 µM (inactive) | 0.578 µM (active) | > 100 µM (inactive) | > 100 µM (inactive) | > 100 µM (inactive) | > 100 µM (inactive) | > 100 µM (inactive) | > 100 µM (inactive) | > 100 µM (inactive) | > 100 µM (inactive) | > 100 µM (inactive) | > 100 | > 100 µM (inactive) |  |  |  |  |  |
| N=C1C(=N)c2ccccc2-c2ccccc21 | 1 µM (active) | 0.513 µM (active) | 0.337 µM (active) | 1.55 µM (inactive) |  | 2 µM (inactive) | 2.49 µM (inactive) | 2.1 µM (inactive) | 0.308 µM (active) | 1.74 µM (inactive) | 1.03 µM (active) | 0.376 µM (active) | 1.19 µM (inactive) | 1.55 | 1.65 µM (inactive) | 0.492 µM (active) | 0.914 µM (active) | 1.21 µM (inactive) | 0.419 µM (active) | 0.199 µM (active) |
| CCOC(=O)c1cn2c(n1)sc1cc(C)c(C)cc12 | 20.1 µM (inactive) | 14.4 µM (inactive) | 29 µM (inactive) | 31.6 µM (inactive) |  | 23 µM (inactive) | 25.4 µM (inactive) | 24 µM (inactive) | 16.5 µM (inactive) | 18.9 µM (inactive) | 24.2 µM (inactive) | 24.1 µM (inactive) | 19.1 µM (inactive) | 27.9 | 24.6 µM (inactive) | 27.7 µM (inactive) | 28.7 µM (inactive) | 31 µM (inactive) | 25.5 µM (inactive) | 20.3 µM (inactive) |
| CC(=O)N1C(OCc2ccccc2)CCN1c1ccccc1 (stereo unspecified) | > 10 µM (inactive) | > 10 µM (inactive) | > 10 µM (inactive) | > 10 µM (inactive) |  | > 10 µM (inactive) | 3.29 µM (inactive) | > 10 µM (inactive) | > 10 µM (inactive) | > 10 µM (inactive) | > 10 µM (inactive) | > 10 µM (inactive) | > 10 µM (inactive) | > 10 | > 10 µM (inactive) | > 10 µM (inactive) | > 10 µM (inactive) | > 10 µM (inactive) | > 10 µM (inactive) | > 10 µM (inactive) |
| N#CC(c1ccccc1)N(CCc1ccccc1)C(=O)Oc1ccccc1 (stereo unspecified) | > 100 µM (inactive) | > 100 µM (inactive) | > 100 µM (inactive) | > 100 µM (inactive) |  | > 100 µM (inactive) | 29.5 µM (inactive) | > 100 µM (inactive) | > 100 µM (inactive) | > 100 µM (inactive) | > 100 µM (inactive) | > 100 µM (inactive) | > 100 µM (inactive) | > 100 | > 100 µM (inactive) | > 100 µM (inactive) | > 100 µM (inactive) | > 100 µM (inactive) | > 100 µM (inactive) | > 100 µM (inactive) |
| CN(C)C(=S)/N=c1\ss/c(=N\C(=S)N(C)C)n1-c1ccc(Cl)c(Cl)c1 | > 100 µM (inactive) | > 100 µM (inactive) | > 100 µM (inactive) | > 100 µM (inactive) | > 100 µM (inactive) | > 100 µM (inactive) |  | > 100 µM (inactive) | > 100 µM (inactive) | > 100 µM (inactive) | > 100 µM (inactive) | > 100 µM (inactive) | > 100 µM (inactive) | > 100 | > 100 µM (inactive) |  |  | > 100 µM (inactive) |  |  |
| COC(=O)C(=O)C(C#N)c1cccc2ccccc12 (stereo unspecified) | > 100 µM (inactive) | > 100 µM (inactive) | > 100 µM (inactive) |  | > 100 µM (inactive) | > 100 µM (inactive) | > 100 µM (inactive) | > 100 µM (inactive) | > 100 µM (inactive) | > 100 µM (inactive) | > 100 µM (inactive) | > 100 µM (inactive) | > 100 µM (inactive) | > 100 |  |  |  | > 100 µM (inactive) |  |  |
| COc1cc2c(c(OC)c1)C1(CC(CC#N)C2)SCCS1 (stereo unspecified) | > 100 µM (inactive) | > 100 µM (inactive) | > 100 µM (inactive) | > 100 µM (inactive) | > 100 µM (inactive) | > 100 µM (inactive) |  | > 100 µM (inactive) | 62.2 µM (inactive) | > 100 µM (inactive) | > 100 µM (inactive) | > 100 µM (inactive) | > 100 µM (inactive) | > 100 | > 100 µM (inactive) |  |  | < 0.01 µM (active) |  |  |
| COc1ccc(OC)c([N+](=O)[O-])c1-c1nc2sc(C)c(C)n2c1/C=N/N=C(N)N | 66.4 µM (inactive) | 33.3 µM (inactive) | 13.9 µM (inactive) | 21.3 µM (inactive) |  | 27.3 µM (inactive) | 61 µM (inactive) | 45.6 µM (inactive) | 34.5 µM (inactive) | > 100 µM (inactive) | > 100 µM (inactive) | 50.7 µM (inactive) | > 100 µM (inactive) | > 100 | > 100 µM (inactive) | > 100 µM (inactive) | 25.9 µM (inactive) | 41.8 µM (inactive) | 23.4 µM (inactive) | 43.1 µM (inactive) |
| COC(=O)c1ccccc1C1CN=NC12Cc1ccc(C)c(C)c1C2=O (stereo unspecified) | > 100 µM (inactive) | 28.9 µM (inactive) | 26.1 µM (inactive) | > 100 µM (inactive) |  | > 100 µM (inactive) | 28.2 µM (inactive) | > 100 µM (inactive) | 21.6 µM (inactive) | 57.5 µM (inactive) | > 100 µM (inactive) | 34.3 µM (inactive) | > 100 µM (inactive) | 33.9 | 56.2 µM (inactive) | 21.9 µM (inactive) | > 100 µM (inactive) | 6.84 µM (inactive) | 20.5 µM (inactive) | 64.3 µM (inactive) |
| O=C(c1ccccn1)c1nc(-c2ccc(Cl)c(Cl)c2)nc2ccc(Cl)cc12 | > 100 µM (inactive) | 92 µM (inactive) | 58.6 µM (inactive) | 34.3 µM (inactive) | > 100 µM (inactive) | 35 µM (inactive) |  |  | 51.9 µM (inactive) | 41.6 µM (inactive) | > 100 µM (inactive) | 71.1 µM (inactive) |  | 39.2 | 67 µM (inactive) |  |  |  |  |  |
| O=C1CSC(=S)N1/N=C/c1ccc(Cl)c([N+](=O)[O-])c1 | 33.7 µM (inactive) | 38.3 µM (inactive) | 31.1 µM (inactive) | 29.8 µM (inactive) |  | 36.7 µM (inactive) | 27.6 µM (inactive) | 19.6 µM (inactive) | 53.6 µM (inactive) | 46.2 µM (inactive) | 32.9 µM (inactive) | 7.35 µM (inactive) | 25.8 µM (inactive) | 20.2 | 53.5 µM (inactive) | 22.6 µM (inactive) | 19.8 µM (inactive) | 18.3 µM (inactive) | 23 µM (inactive) | 20.7 µM (inactive) |
| O=C(O)CCC(=O)c1ccc2ccc3cccc4ccc1c2c34 | 59.2 µM (inactive) | 81.7 µM (inactive) | 60.3 µM (inactive) | > 100 µM (inactive) |  | 70.3 µM (inactive) | > 100 µM (inactive) | 61.7 µM (inactive) | 58.6 µM (inactive) | 62.2 µM (inactive) | 66.7 µM (inactive) | 45.3 µM (inactive) | 57 µM (inactive) | 38 | 49.1 µM (inactive) | 96.4 µM (inactive) | 63.2 µM (inactive) | 83.8 µM (inactive) | 83 µM (inactive) | 98.2 µM (inactive) |
| COc1ccc(C2CC(=O)c3c(O)cc(O)cc3O2)cc1O (stereo unspecified) | > 100 µM (inactive) | 28.8 µM (inactive) | > 100 µM (inactive) | > 100 µM (inactive) | > 100 µM (inactive) | > 100 µM (inactive) |  | > 100 µM (inactive) | > 100 µM (inactive) | > 100 µM (inactive) | > 100 µM (inactive) | > 100 µM (inactive) | > 100 µM (inactive) | > 100 | > 100 µM (inactive) |  |  | > 100 µM (inactive) |  |  |
